Active and inactive are the calls of the source. No cut-off for these calls is given here.

From ChEMBL document CHEMBL5223082, “Alkyl-Aryl-Vancomycins: Multimodal Glycopeptides with Weak Dependence on the Bacterial Metabolic State” (J Med Chem, 2021) come the findings set out here.

The test system of one experiment is Staphylococcus aureus. Nature of the experiment: Antibacterial activity against Vancomycin-resistant Staphylococcus aureus 1 assessed as inhibition of bacterial growth incubated for 18 to 24 hrs by CLSI microbroth dilution method. It is filed as functional. The conditions noted are these: time 18-24 hrs.
The next experiment deals with Enterococcus. Nature of the experiment: Bactericidal activity against Vancomycin-resistant Enterococci assessed as reduction in bacterial colonies at MIC to 2XMIC incubated for 6 hrs in broth solution followed by culturing for 24 hrs on agar plate by spot plating method. It is filed as functional, organism-based. Particulars: time 30.0 hrs.

Take `CCCCCCCCCCNC(=O)C[N+](C)(C)CCCNC(=O)c1ccc(CN[C@@]2(C)C[C@H](O[C@H]3[C@H](Oc4c5cc6cc4Oc4ccc(cc4Cl)[C@@H](O)[C@@H](NC(=O)[C@@H](CC(C)C)NC)C(=O)N[C@@H](CC(N)=O)C(=O)N[C@H]6C(=O)N[C@H]4C(=O)N[C@H](C(=O)N[C@H](C(=O)O)c6cc(O)cc(O)c6-c6cc4ccc6O)[C@H](O)c4ccc(c(Cl)c4)O5)O[C@H](CO)[C@@H](O)[C@@H]3O)O[C@@H](C)[C@H]2O)cc1`: the MIC in the experiment with Staphylococcus aureus is 1.8 µM. Besides, the outcome in the experiment on Enterococcus was inactive.
